Patent US20230348493A1, “COMPOUND FOR ADJUSTING ACTIVITY OF NMDA RECEPTOR, AND PHARMACEUTICAL COMPOSITION AND USE THEREOF” (BEIJING GREATWAY PHARMACEUTICAL TECHNOLOGY CO., LTD., priority 2020, published 2023)
Read-outs that look alike come from different tables or passages of the source.

Tests used:
NMDA receptor [1] = molecular target: T1, NMDA receptor (Rattus norvegicus, UniProt P35439); assay: Inhibition of [3H]-MK-801 binding to rat crude synaptosomes (receptor ligand binding assay)
T1 construct: After the rats were decapitated, the prefrontal cortex and hippocampus were rapidly separated on ice; from tissue; host or cells: SD male rat prefrontal cortex and hippocampus, crude synaptosomes
Method: The affinity of the tested compounds on NMDA receptor was researched by receptor ligand binding assays.
Ten SD male rats of SPF grade were ordered and acclimated for 7 days for future use.
(§1) After the rats were decapitated, the prefrontal cortex and hippocampus were rapidly separated on ice and weighed, 10 volumes of 50 mM Tris-HCl buffer (50 mM Tris-HCl, 5 mM MgCl2·6H2O, 1 mM EDTA, 0.5% (W/V) BSA, 1 mM PMSF, 0.32 M sucrose, pH 7.4) was added, and the mixture was homogenized for five times at 1500 revolutions/min with 30 s each time. A homogenate was centrifuged for 10 min at 1000×g, and a supernatant was taken and centrifuged for 10 min at 40,000×g, the precipitates were collected, re-suspended with volumes of Tris-HCl buffer, incubated at 37° C. for 10 min, and centrifuged for 10 min at 40,000×g, finally the precipitates were re-suspended with the above buffer, aliquoted and stored at −80° C. for later use.
(2) Detection of Inhibitory Function of Tested Medicines on Binding of Crude Synaptosomes in Rats to [^3H]-MK-801
50 μg of rat crude synaptosomal proteins was added to all tubes respectively. A volume of 50 μl of MK-801 (dizocilpine) was added to a non-specific binding tube to achieve a final concentration of 100 μM, and the materials were reacted for 15 min in advance. 20 μL of control drug at corresponding concentration was added to the test tube for reaction for 15 min. A volume of 30 μl of labeled ligand [^3H]-MK-801 was successively added to all tubes to achieve a final concentration of 10 nM. All reaction tubes were supplemented to a volume of 200 μl with 50 mM Tris-HCl buffer (50 mM Tris-HCl, 5 mM MgCl2·6H2O, 1 mM EDTA, 0.5% (WN) BSA, 0.1% NaN3, pH 7.4). A reaction was carried out at 37° C. for 10 min. A type-49 glass fiber filter membrane was prepared and a sample was applied at the same time. The filter membrane was placed in a multi-head cell collector, and a reaction system was subjected to suction filtration under negative pressure and washed with an ice-cold 50 mM Tris-HCl buffer, 10 ml each time, for a total of 5 times. After suction drying, 1 ml of scintillation liquid was added to the filter membrane, the filter membrane was placed on a shaker for shaking for 1.5 h and then placed in a liquid scintillation counter on the next day to determine the radioactive intensity.
GraphPad5.0 software was used to analyze the data, and the percentage of competitive inhibition was calculated through nonlinear fitting, wherein:
Percentage of competitive inhibition %=((total binding tube cpm−compound cpm)/(total binding tube cpm−non-specific binding tube cpm))×100%;
Specific binding amount=total binding amount−non-specific binding amount, wherein each binding site was determined by double compound tubes.

NMDA receptor [2] = molecular target: T1, NMDA receptor; assay: NMDA receptor agonistic properties in rat crude synaptosomal proteins (maximum [3H]-MK-801 binding vs 1 mM glycine); type: biochemical; conditions: maximum [3H]-MK-801 binding % relative to 1 mM glycine; 50 μM glutamic acid
Method: as §1
(3) Detection of Influence of Tested Medicines on NMDA Receptor Agonistic Properties in Rat Crude Synaptosomal Proteins
100 μg of rat crude synaptosomal proteins was added to all tubes respectively. 50 μl of 5,7-dichlorokynurenic acid was added to a non-specific binding tube to achieve a final concentration of 10 μM. All tubes were preloaded with 50 μM of glutamic acid, and the materials were reacted for 15 min in advance. 20 μL of control drug at corresponding concentration was added to the test tube, and then reacted for 15 min. 1 mM glycine was added to the maximum reaction tube. A volume of 30 μl of labeled ligand [^3H]-MK-801 was successively added to all tubes to achieve a final concentration of 10 nM, and reacted for 15 min. All reaction tubes were supplemented to a volume of 500 μl with 50 mM Tris-HCl buffer (50 mM Tris-HCl, 5 mM MgCl2·6H2O, 1 mM EDTA, 0.5% (WN) BSA, 0.1% NaN3, pH 7.4). A reaction was carried out at 37° C. for 15 min. A type-49 glass fiber filter membrane was prepared and a sample was applied at the same time. The filter membrane was placed in a multi-head cell collector, and the reaction system was subjected to suction filtration under negative pressure and washed with an ice-cold 50 mM Tris-HCl buffer, 10 ml each time, for a total of 5 times. After suction drying, 1 ml of scintillation liquid was added to the filter membrane, the filter membrane was placed on the shaker for shaking for 1.5 h and then placed in the liquid scintillation counter on the next day to determine the radioactive intensity.
In an agonistic experiment, maximum [^3H]-MK-801 binding %=((tested compounds cpm−5,7 dichlorokynurenic acid cpm)/(1 mM glycine cpm−5,7 dichlorokynurenic acid cpm))×100%.

[3] = affinity on NMDA, [3H]-MK-801 10 nM, rat prefrontal cortex and hippocampus crude synaptosomes, read-out: IC50

| Compound | IC50 (NMDA receptor [1]; [3]) [pM] | Maximum agonistic efficacy (%) (NMDA receptor [2]) | IC50 (NMDA receptor [1]) [pM] |
| --- | --- | --- | --- |
| CC(C)(C)OC(=O)N1CC2(C1)NCCS2 [A-002] | 330 | 45 | – |
| CC(C)(C)OC(=O)N1CCC2(C1)NCCS2 (stereo not drawn) [A-016] | 350 | 56 | – |
| CC(C)(C)OC(=O)N1CCC2(CC1)NCCS2 [A-030] | 350 | 39 | – |
| CC(=O)N1CCC2(CC1)NCCS2 [A-031] | 350 | 52 | – |
| Cl.N[C@@H](CO)C(=O)N1CCC2(CC1)NCCS2 [A-035] | 880 | 19 | – |
| CC(C)[C@H](N)C(=O)N1CCC2(CC1)NCCS2.Cl [A-036] | 890 | 28 | – |
| CC(C)(C)OC(=O)N1CCCC2(C1)NCCS2 (stereo not drawn) [A-044] | 660 | 28 | – |
| C[C@@H](O)[C@H](N)C(=O)N1CCCC2(C1)NCCS2.Cl (stereo partly drawn) [A-048] | 550 | 38 | – |
| CC(=O)N1CC2(C1)SCCN2C(C)=O [A-059] | 750 | 33 | – |
| CC(=O)N1CCSC12CN(C(=O)[C@@H](N)C(C)C)C2.Cl [A-068] | 1300 | 48 | – |
| CC(=O)N1CCSC12CCN(C(=O)[C@@H](N)[C@@H](C)O)C2.Cl (stereo partly drawn) [A-074] | 890 | 38 | – |
| CC(=O)N1CCSC12CCN(C(=O)OC(C)(C)C)CC2 [A-078] | 1590 | 56 | – |
| CC(=O)N1CCC2(CC1)SCCN2C(C)=O [A-079] | 1250 | 41 | – |
| CC(=O)N1CCSC12CCCN(C(=O)[C@@H](N)[C@@H](C)O)C2.Cl (stereo partly drawn) [A-090] | 450 | 36 | – |
| CC(C)C(=O)N1CCSC12CNC2.Cl [A-093] | – | 65 | 480 |
| CC(=O)N1CCC2(CC1)SCCN2C(=O)C(C)C [A-111] | 1580 | 38 | – |
| CC(C)C(=O)N1CCSC12CCN(C(=O)[C@@H](N)[C@@H](C)O)CC2.Cl [A-114] | 890 | 35 | – |
| CC(=O)N1CCCC2(C1)SCCN2C(=O)C(C)C (stereo not drawn) [A-119] | 1890 | 35 | – |
| CC(C)C(=O)N1CCSC12CCCN(C(=O)[C@@H](N)[C@@H](C)O)C2.Cl (stereo partly drawn) [A-122] | 1650 | 38 | – |
| C[C@@H](O)[C@H](N)C(=O)N1CC2(C1)SCCN2C(=O)C(C)(C)C.Cl [A-130] | 480 | 43 | – |
| CC(C)CN1CCSC12CN(C(=O)[C@@H](N)[C@@H](C)O)C2.Cl [A-162] | 450 | 38 | – |

| Compound | IC50 (NMDA receptor [1]; [3]) [pM] | Maximum agonistic efficacy (%) (NMDA receptor [2]) | IC50 (NMDA receptor [1]) [pM] |
| --- | --- | --- | --- |
| Cl.N[C@@H](CO)C(=O)N1CC2(C1)SCCN2Cc1ccccc1 [A-195] | 430 | 46 | – |
| C[C@@H](O)[C@H](N)C(=O)N1CC2(C1)SCCN2C.Cl [A-226] | 330 | 45 | – |
| C[C@@H](O)[C@H](N)C(=O)N1CCC2(C1)SCCN2C.Cl (stereo partly drawn) [A-234] | 1580 | 75 | – |
| CC(C)C(=O)N1CC2(C1)N[C@H](C(N)=O)CS2 [A-256] | 890 | 28 | – |
| C[C@@H](O)[C@H](N)C(=O)N1CCC2(C1)N[C@H](C(N)=O)CS2.Cl (stereo partly drawn) [A-266] | 3200 | 45 | – |
| CC(C)C(=O)N1CCC2(CC1)N[C@H](C(N)=O)CS2 [A-272] | 540 | 19 | – |
| Cl.NC(=O)[C@@H]1CSC2(CCN(C(=O)[C@@H](N)CO)CC2)N1 [A-275] | 350 | 12 | – |
| CC(C)[C@H](N)C(=O)N1CCC2(CC1)N[C@H](C(N)=O)CS2.Cl [A-276] | 250 | 28 | – |
| C[C@@H](O)[C@H](N)C(=O)N1CCCC2(C1)N[C@H](C(N)=O)CS2.Cl (stereo partly drawn) [A-282] | 320 | 35 | – |
| COC(=O)[C@@H]1CSC2(CCN(C(=O)[C@@H](N)[C@@H](C)O)CC2)N1.Cl [A-291] | 880 | 13 | – |
| Cl.N#C[C@@H]1CSC2(CN(C(=O)[C@@H](N)CO)C2)N1 [A-303] | 240 | 35 | – |
| CC(C)[C@H](N)C(=O)N1CCSC12CNC2.Cl [A-329] | – | 26 | 730 |
| CC(C)[C@H](N)C(=O)N1CCSC12CN(C(=O)[C@@H](N)[C@@H](C)O)C2.Cl [A-331] | 590 | 31 | – |
| CC(=O)N1CC2(C1)N[C@H](C(=O)N[C@@H](CO)C(N)=O)CS2 [A-333] | 410 | 19 | – |
| NC(=O)C(CO)NC(=O)C1CSC2(CN(C(=O)C(N)CO)C2)N1 (stereo not drawn) [A-334] | 380 | 34 | – |
| CC(=O)N1[C@H](C(N)=O)CSC12CN(C(=O)[C@@H](N)C(C)O)C2.Cl (stereo partly drawn) [A-335] | 480 | 42 | – |
| CC(=O)N1CC2(C1)SCCN2C(=O)[C@@H](N)CC(N)=O.Cl [A-342] | 560 | 32 | – |
| C[C@@H](O)[C@H](N)C(=O)N1CCC2(C1)SCCN2C(=O)[C@@H](N)[C@@H](C)O.Cl (stereo partly drawn) [A-353] | 480 | 53 | – |
| CC(C)C(=O)N1CCC2(CC1)SCCN2C(=O)[C@@H](N)[C@@H](C)O.Cl [A-358] | 860 | 78 | – |
| C[C@@H](O)[C@H](N)C(=O)N1CCCC2(C1)SCCN2C(=O)[C@@H](N)[C@@H](C)O.Cl (stereo partly drawn) [A-367] | 290 | 39 | – |
| C[C@@H](O)[C@H](NC(=O)[C@@H]1CSC2(CNC2)N1)C(N)=O.Cl [A-370] | – | 46 | 360 |
